Measured values as given in US7901906B2, “Targeting of MKRN1 for identifying cancer treatment agents” (University of Central Florida Research Foundation, Inc., priority 2006, dated 2011).

How the values were obtained:
hTERT [1] = test: hTERT protein levels by immunoblotting in H1299 cells; format: cell-based, human
Experimental: FIG. 1. hTERT is sensitive to the Hsp90 antagonist geldanamycin. (A) Down-regulation of ectopically expressed hTERT by GA. H1299 cells transfected with Flag-hTERT or Flag-TRF1 were treated with 0.1 μM GA for the indicated times. Lysates were resolved on 8% SDS-PAGE and analyzed by immunoblotting using an anti-Flag antibody probe. Cells were pretreated with 10 μM MG132 or E-64 for 2 hours, either alone or before treatment with GA. (B) Concentration dependence of GA on hTERT. H1299 cells transfected with Flag-hTERT or hTERT-HA were treated for 2 hours with the GA concentration indicated. The hTERT polypeptides were visualized with anti-Flag or anti-HA antibodies as marked by each blot. (C) Down-regulation of endogenous hTERT by GA. H1299 cells were treated with 0.1 μM GA for the indicated times, and cell lysates were analyzed by immunoprecipitation with anti-hTERT antibody followed by immunoblotting using same antibody probe. Cells were pretreated with 10 μM MG132 for 2 hours, either alone or before treatment with GA. Molecular weight markers are shown in kilodaltons. (D) H1299 cells were treated with 0.1 μM GA for the indicated times, and cell lysates were analyzed for telomerase activity by the TRAP assay. The lane labeled LB corresponds to the negative control (lysis buffer only). ITAS represents the internal telomerase assay standard. (E) Saos-2 cells transfected with Flag-hTERT or hTERT-HA or empty vector were untreated or treated with 0.1 μM GA for 16 hours, and cell lysates were analyzed for telomerase activity using the TRAP assay.
(§1) FIG. 2. hTERT is ubiquitinated prior to proteasome-mediated degradation. (A) H1299 cells were co-transfected with Flag-hTERT and HA-ubiquitin. Cells were either untreated or treated for 2 hours with 10 μg/ml ALLnN or 0.1 μM GA, or a combination of the two as specified above each lane. Immunoprecipitation was performed with anti-Flag antibody before probing with anti-hTERT or anti-HA antibodies as indicated besides each blot. Molecular weight markers are shown in kilodaltons. (B) H1299 cells co-transfected with Flag-hTERT and HA-ubiquitin were treated for 1 hour with the GA concentration indicated in the presence of 10 μM MG132. Immunoprecipitation was performed with anti-Flag antibody followed by immunoblotting using an anti-HA antibody probe. (C) H1299 cells co-transfected with Flag-hTERT and HA-ubiquitin were either untreated or treated for 2 hours with 10 μg/ml ALLnN as specified above each lane. Proteins were immunoprecipated with anti-Flag antibody followed by immunoblotting using an anti-HA antibody probe.
The human lung carcinoma cell line H1299 was cultured in RPMI-1640 medium, and the human fibrosarcoma cell line HT1080 was cultured in Dulbecco's modified Eagle's medium supplemented with 10% fetal bovine serum, 100 units/ml penicillin, and 100 μg/ml streptomycin in 5% CO2 at 37° C. The human osteosarcoma cell line Saos-2 was maintained in McCoy's 5A medium containing 15% fetal bovine serum, 100 units/ml penicillin, and 100 μg/ml streptomycin. To establish cell lines stably expressing MKRN1, the MKRN1-V5 construct was transfected into HT1080 cells using Lipofectamine Plus (Invitrogen, Carlsbad, Calif.) according to the manufacturer's instructions. As a control, HT1080 cells were also stably transfected with an empty vector. Multiple independent single clones were isolated and checked for protein expression by immunoblotting with anti-V5 antibody.
H1299 cells were transiently transfected with the expression vectors indicated in the figure legends using TransFast transfection reagent (Promega, Madison, Wis.) according to the manufacturer's instructions. Cells were lysed with buffer containing 0.5% NP-40, 50 mM Tris-HCl (pH 7.5), 150 mM NaCl, 2 mM phenyl methylsulphonyl fluoride. […]

[2] = tested on: hTERT (residues 946-1132); test: In vitro ubiquitination assay; format: biochemical, human; settings: purified components, E1, E2, His6-ubiquitin, 30° C., 60 min
Experimental: (§2) FIG. 4. MKRN1 functions as an E3 ubiquitin-ligase for hTERT in vitro and in vivo. (A) HA-tagged hTERT (residues 946-1132) was incubated MKRN1 or mutants in the presence of E1, E2, His6-ubiquitin (6×His tag disclosed as SEQ ID NO: 7). Samples were resolved by 6% SDS-PAGE and analyzed by immunoblotting with an anti-HA antibody probe. (B) H1299 cells were co-transfected with Flag-hTERT, HA-ubiquitin, MKRN1-V5, and together with either MKRN1^H307E-V5 or MKRN1^Δ^C-V5 as specified. Cells were untreated or treated with 10 μM MG132 for 2 hours. Anti-Flag immunoprecipitates and cell lysates were analyzed by immunoblotting with anti-HA antibody and anti-V5 antibody probes, respectively. (C) H1299 cells co-transfected with Flag-hTERT and HA-ubiquitin, and together with or without MKRN1-V5 as indicated were treated with 10 μM MG132 for the indicated times. Anti-Flag immunoprecipitates and cell lysates were analyzed by immunoblotting with anti-HA antibody and anti-V5 antibody probes, respectively.
GST-hTERT-HA expressed in bacteria was used as substrate for in vitro ubiquitination assay (Park et al. 2004). The ubiquitination reactions were carried out in buffer (50 mM Tris-HCl, pH 7.5, 2 mM ATP, 2.5 mM MgCl2, 5 mM dithiothreitol, and 0.05% NP-40) containing yeast E1 (0.05 μg), E2 (0.2 μg), and His6-ubiquitin (0.8 μg) (6×His disclosed as SEQ ID NO: 7) in a final volume of 30 μl. […]

hTERT [3] = test: Ubiquitination of hTERT in H1299 cells (immunoprecipitation, anti-HA immunoblot); format: cell-based, human; settings: H1299 Flag-hTERT and HA-ubiquitin, MG132
Experimental: as §1, §2
H1299 cells were transiently transfected with the expression vectors indicated in the figure legends using TransFast transfection reagent (Promega, Madison, Wis.) according to the manufacturer's instructions. Cells were lysed with buffer containing 0.5% NP-40, 50 mM Tris-HCl (pH 7.5), 150 mM NaCl, 2 mM phenyl methylsulphonyl fluoride. After centrifugation at 12,000 rpm for 30 min, the supernatants were immunoprecipitated for 2 hours with anti-Flag (Sigma, St. Louis, Mo.) or anti-HA (Santa Cruz biotechnology, Santa Cruz, Calif.) antibodies and then incubated with Sepharose beads conjugated to Protein G (Amersham Biosciences Inc., Piscataway, N.J.). When ubiquitin conjugates of hTERT were detected, immunoprecipitation was performed with lysis buffer containing 0.1% SDS to dissociate its interacting proteins. Immunoblot analyses were performed using anti-hTERT (Santa Cruz biotechnology, Santa Cruz, Calif.), anti-V5 (Invitrogen, Carlsbad, Calif.), anti-HA, and anti-Flag antibodies.
GA-mediated protein degradation by the proteasome depends on conjugation of ubiquitin to the Hsp90 client protein (Isaacs et al. 2002; Citri et al. 2002). To determine whether hTERT is ubiquitinated in vivo prior to its degradation, H1299 cells co-transfected with Flag-tagged hTERT and HA-tagged ubiquitin constructs were treated with GA, ALLnN (a general proteasome inhibitor) or both. The immunoprecipitated products were evaluated by immunoblotting with selected probes as described in FIG. 2. […]

Molecule: CC(C)C[C@H](NC(=O)[C@H]1O[C@@H]1C(=O)O)C(=O)NCCCCN=C(N)N [E-64]
- effect on GA-induced down-regulation of hTERT (hTERT [1]; H1299 Flag-hTERT, 10 μM pretreatment 2 hours, then GA 4 hours): had no effect
- hTERT expression levels, inhibitor alone (hTERT [1]; H1299 Flag-hTERT, 10 μM, absence of GA, relative to untreated controls): did not cause a significant change

Molecule: COC1=C2C[C@@H](C)C[C@H](OC)[C@H](O)[C@@H](C)/C=C(\C)[C@H](OC(N)=O)[C@@H](OC)/C=C\C=C(/C)C(=O)NC(=CC1=O)C2=O [GA, geldanamycin]
- hTERT protein eliminated (hTERT [1]; H1299 transfected with Flag-hTERT, 0.1 μM GA, within 2 hours): over 50%

B1: MKRN1^H307E: MKRN1 mutant with mutated histidine residue in the RING finger domain (protein)
chain: MAEAATPGTTATTSGAGAAAATAAAASPTPIPTVTAPSLGAGGGGGGSDGSGGGWTKQVTCRYFMHGVCKEGDNCRYSHDLSDSPYSVVCKYFQRGYCIYGDRCRYEHSKPLKQEEATATELTTKSSLAASSSLSSIVGPLVEMNTGEAESRNSNFATVGAGSEDWVNAIEFVPGQPYCGRTAPSCTEAPLQGSVTKEESEKEQTAVETKKQLCPYAAVGECRYGENCVYLHGDSCDMCGLQLLHPMDAAQRSQHIKSCIEAHEKDMELSFAVQRSKDMVCGICMEVVYEKANPSERRFGILSNCNETYCLKCIRKWRSAKQFESKIIKSCPECRITSNFVIPSEYWVEEKEEKQKLILKYKEAMSNKACRYFDEGRGSCPFGGNCFYKHAYPDAGREEPQRQKVGTSSRYRAQRRNHFWELIEERENSNPFDNDEEEVVTFELGEMLLMLLAAGGDDELTDSEDEWDLFHDELEDFYDLDL
modifications: left off: small tags and cut ends
- ubiquitination of C-terminal domain of hTERT [2]: not
- amount of ubiquitinated hTERT on co-expression (hTERT [3]): significantly reduced
